Test systems include OVCAR-8 ovarian; A498 renal; DU-145 prostate; MDA-MB-435; ACHN renal; HT29 colon; RXF 393 renal; SF-539 CNS; U251 CNS; T-47D breast.
Common to all, as to assay: growth of human tumour cells (NCI), 48 h

“And” between values parts separate entries of the source, which are not always exact repeats. Equal values may be shown once.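 Cultured in 96-well plates, cells were exposed to test compound for 48 hours across five concentrations. At the GI50, growth is halved. TGI is the concentration that stops growth completely.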

As for `CC(=O)OC(/C=C/c1ccccc1)P1(=O)N(CC(C)(C)C)[C@@H]2CCCC[C@H]2N1CC(C)(C)C` (some centres undefined), the TGI is 19.7 µM and 21.6 µM in the experiment with OVCAR-8 ovarian; 21.8 µM in the experiment with A498 renal; 23.7 µM and 23.5 µM in the experiment with DU-145 prostate; 28.8 µM and 22.1 µM in the experiment with MDA-MB-435; 21.6 µM and 20.3 µM in the experiment with ACHN renal; 17.6 µM and 15.6 µM in the experiment with HT29 colon. Moreover, the TGI is 22 µM and 14.5 µM with RXF 393 renal; 21.2 µM and 28.6 µM in the experiment on SF-539 CNS; 22.6 µM and 19.7 µM in the experiment on U251 CNS; 9.04 µM and 6.4 µM in the experiment on T-47D breast. Besides, the GI50 in the experiment on T-47D breast is 2900 nM and 1180 nM.
`CCCN1C(=O)CC(C)N(Cc2ccccc2Cl)C1=S` (centres undefined): the TGI in the experiment on OVCAR-8 ovarian was 72.1 µM; in the experiment with A498 renal, 47 µM; in the experiment with DU-145 prostate, greater than 100 µM; in the experiment on MDA-MB-435, 65.9 µM; in the experiment with ACHN renal, 88.4 µM; in the experiment with HT29 colon, greater than 100 µM. The TGI with RXF 393 renal was 21.9 µM; in the experiment with SF-539 CNS it was 36 µM; in the experiment with U251 CNS it was 67.8 µM; with T-47D breast, 44.1 µM.
Regarding `COC(=O)c1c(O)ccc2c1c1c(n2Cc2ccccc2Cl)C(=O)c2ccccc2C1=O`, the TGI stood at 51.5 µM in the experiment on OVCAR-8 ovarian; 31.3 µM in the experiment on A498 renal; 29 µM in the experiment on DU-145 prostate; 25.2 µM in the experiment on MDA-MB-435; 36.7 µM in the experiment with ACHN renal; 3.58 µM in the experiment with HT29 colon. Further, the TGI was determined as 41.3 µM in the experiment with RXF 393 renal, 30 µM in the experiment on SF-539 CNS, 30.2 µM with U251 CNS and 27.4 µM with T-47D breast.
With `O=C(Nc1cccc(-n2ccc3c(NC(=O)c4ccccc4)nccc32)c1)Nc1cc(C(F)(F)F)cc(C(F)(F)F)c1`, the GI50 was 1650 nM with OVCAR-8 ovarian; 1530 nM with A498 renal; 1680 nM in the experiment on DU-145 prostate; 1230 nM with MDA-MB-435; 1480 nM in the experiment on ACHN renal; 1370 nM in the experiment with HT29 colon. Besides, the GI50 with RXF 393 renal was 1160 nM; in the experiment with SF-539 CNS, 1390 nM; in the experiment with U251 CNS, 1630 nM; in the experiment with T-47D breast, 12600 nM. Besides, the TGI in the experiment on OVCAR-8 ovarian is 5.14 µM; in the experiment on A498 renal it was greater than 50 µM; in the experiment with DU-145 prostate, 7.97 µM; in the experiment with MDA-MB-435 it was 3.21 µM; in the experiment on ACHN renal, 7.61 µM; in the experiment with HT29 colon, 4.31 µM. Also, the TGI in the experiment with RXF 393 renal was 3.17 µM; with SF-539 CNS, 4.76 µM; in the experiment on U251 CNS, 7.68 µM; with T-47D breast, greater than 50 µM.
For the molecule `NC(N)=N/N=C/c1nc2n(c1[N+](=O)[O-])CCS2`, the TGI in the experiment on OVCAR-8 ovarian was greater than 100 µM; with A498 renal it was greater than 100 µM; with DU-145 prostate, 88.2 µM; in the experiment on MDA-MB-435, 74.1 µM; in the experiment on ACHN renal, greater than 100 µM; in the experiment with HT29 colon it was greater than 100 µM. The TGI is 65.3 µM in the experiment with RXF 393 renal, greater than 100 µM in the experiment on SF-539 CNS, 89.3 µM in the experiment with U251 CNS and 67.4 µM with T-47D breast.
For `CCCCCCCCOC1C(O)C(O)C(O)C(O)C12CO2` (centres undefined), the TGI in the experiment on OVCAR-8 ovarian, in the experiment with A498 renal, in the experiment with DU-145 prostate, in the experiment with MDA-MB-435, in the experiment with ACHN renal and with HT29 colon was greater than 100 µM throughout. In addition, the TGI in the experiment with RXF 393 renal, in the experiment with SF-539 CNS, in the experiment with U251 CNS and in the experiment with T-47D breast was greater than 100 µM in each case.
In the case of `O=C(c1ccccc1)N1CCN(C(=S)N(C(=O)c2ccccc2)c2ccccc2)C1=S`, the TGI stood at 13.3 µM with OVCAR-8 ovarian; 13.4 µM in the experiment on A498 renal; 10.6 µM in the experiment with DU-145 prostate; 12.2 µM in the experiment on MDA-MB-435; 7.2 µM in the experiment on ACHN renal; 31.2 µM with HT29 colon. Further, the TGI is 7.07 µM in the experiment on SF-539 CNS, 22.6 µM in the experiment with U251 CNS and greater than 31.9 µM in the experiment with T-47D breast.
As for `COC(=O)C1C/C(=C/N(C)C)C(=S)N1` (centres undefined), the TGI in the experiment on OVCAR-8 ovarian, in the experiment with A498 renal, with DU-145 prostate, with MDA-MB-435, in the experiment with ACHN renal and in the experiment on HT29 colon was greater than 100 µM each time. Besides, the TGI with RXF 393 renal, in the experiment on U251 CNS and with T-47D breast was greater than 100 µM each time.
As to `BrCCCCCOc1ccc(-c2c3ccccc3c(-c3ccc(OCCCCCBr)cc3)c3ccccc23)cc1`, the TGI in the experiment on OVCAR-8 ovarian, with DU-145 prostate, in the experiment on MDA-MB-435, with ACHN renal, in the experiment on HT29 colon and in the experiment with RXF 393 renal was greater than 100 µM in each case. Also, the TGI in the experiment with SF-539 CNS, in the experiment on U251 CNS and with T-47D breast was greater than 100 µM each time.
For the molecule `O=C(NCCC1([N+](=O)[O-])CCN(C(=O)c2ccccc2)CC1)c1ccccc1`, the TGI in the experiment on OVCAR-8 ovarian, with A498 renal, with DU-145 prostate, in the experiment on MDA-MB-435, with ACHN renal and with HT29 colon was greater than 100 µM throughout. Also, the TGI with RXF 393 renal, in the experiment with SF-539 CNS and in the experiment on T-47D breast was greater than 100 µM in each case.
`Cc1ccsc1/C=N/Nc1nc2ccccc2s1`: the TGI with OVCAR-8 ovarian was greater than 100 µM; in the experiment with A498 renal it was 19.2 µM; in the experiment on DU-145 prostate, greater than 100 µM; in the experiment on MDA-MB-435, greater than 100 µM; in the experiment on ACHN renal, 30.8 µM; with HT29 colon it was greater than 100 µM. Further, the results for the TGI in the experiment on RXF 393 renal, in the experiment with U251 CNS and with T-47D breast were 29 µM, 28.3 µM and greater than 100 µM, respectively.
For the molecule `O=S(=O)(c1ccccc1)n1c2ccc(Br)cc2c2nc3ccccc3nc21`, the TGI in the experiment on OVCAR-8 ovarian, with A498 renal, with DU-145 prostate, in the experiment with MDA-MB-435, with ACHN renal and in the experiment on HT29 colon was greater than 100 µM throughout. The TGI in the experiment on RXF 393 renal, with U251 CNS and in the experiment on T-47D breast was greater than 100 µM throughout.
Regarding `CCCCc1ccc(Nc2nc3c(ncn3C3CC(O)C(CN=[N+]=[N-])O3)c(=O)[nH]2)cc1` (centres undefined), the TGI in the experiment with OVCAR-8 ovarian, with A498 renal, in the experiment with DU-145 prostate, in the experiment on MDA-MB-435, in the experiment on ACHN renal and in the experiment on HT29 colon was greater than 100 µM throughout. In addition, the TGI in the experiment with RXF 393 renal, in the experiment with U251 CNS and in the experiment on T-47D breast was greater than 100 µM in each case.

(Values after PubChem BioAssay (NCI).)
